This is an account of results in patent US9469668B2, “Magnetic substance” (IHI CORPORATION, priority 2013, dated 2016).

Data set [1] in a line: Saturation magnetization measurement (magnetic property evaluation device MPMS7). It is filed as physicochemical. How it is done: The measurement was conducted based on a magnetic property evaluation device MPMS7 manufactured by Kantum.
A short description of data set [2]: Particle diameter of single crystal by transmission electron microscope. It is filed as physicochemical. The settings on record: single crystal of the salen complex having the highest ferromagnetic property; TEM, 140 samples.
Procedure: A used device, conditions, and so on are as follows. Device: transmission electron microscope (H-7100FA manufactured by Hitachi) Conditions: acceleration voltage 100 kV Sample adjustment: dispersion method (after the salen complex was ground with a mortar, pure water was added to the ground salen complex, which was then dispersed in a grid by TEM) Grain size distribution measurement software: Image-Pro plus (Media cybermetrics, MD, U.S.A.) Measured target: traced images of the iron-salen complex in TEM photographs Number of samples: 140

Regarding `Oc1ccccc1C=NCCN=Cc1ccccc1O.[Fe+2]` [iron-salen complex, N,N′-bis(salicylidene)ethylenediamine iron(II)], the figures for the saturation magnetization in data set [1] (crystals having the highest magnetic property among 5-6 iron-salen complex preparations) and in data set [1] (crystals having the lowest magnetic property among those complexes) were 1.25 emu/g and 0.02 emu/g, respectively. The average particle diameter in data set [2] is recorded as 450 nm.
